Measurements as given in US6444144B1, “Polyethoxylated ascorbic acid derivatives as a novel antioxidant and process for preparing thereof” (LG Chemical Ltd., priority 1998, dated 2002).
Where two headings read alike, the source gives them in different places.

Key:
[1] = molecular target: Tyrosinase extracted from mushrooms; experiment: Inhibitory activity against tyrosinase; type: biochemical; settings: L-tyrosine substrate, DOPA cofactor, pH 6.8, 37° C., 10 minutes, absorbance at 475 nm
Protocol: Tyrosinase extracted from mushrooms was purchases from Sigma Co. First, L-tyrosine as a substrate was dissolved in a 0.05M phosphate buffer solution (pH 6.8) to have a concentration of 1.5 mM. 0.01 ml of this solution was added to a 0.3 ml spectrophotometer cuvette, followed by 0.01 ml of 0.06 mM dihydroxyphenylalamine (DOPA) as a cofactor. To this solution were added compounds of Formulas (II) and (III) and the phosphate buffer solution to have the total volume of 0.1 ml. […] Meanwhile, a blank was prepared by adding only 0.1 ml of the phosphate buffer solution. The reaction was performed at 37° C. for 10 minutes. The absorbance was measured at 475 nm with a spectrophotometer (Beckman DU-7500) to determine the inhibitory rate against tyrosinase. IC50 value was determined as the concentration of the inhibitor whose inhibitory rate against the enzyme amounts to 50%. Inhibitory Rate(%)=[(A−B)/A]×100 wherein A is the absorbance at 475 nm in a solution containing no inhibitor, and B is the absorbance at 475 nm in a solution containing an inhibitor.

[2] = Radical scavenging effect (DPPH method); settings: for IC50: DPPH, absorption at 517 nm; for radical scavenging effect (in words): comment on Table 2, DPPH, 1 hour and 24 hours
Protocol: Measurement was made using the 1,1-diphenyl-2-picrylhydrazyl (DPPH) method [Blois, M. S. Nature, 1958, 181, 1190]. DPPH is a relatively stable radical with the maximum absorption at 517 nm. The absorption at this wavelength disappears upon removal of the radical. DPPH was purchased from Sigma Co. and dissolved in methanol to make the concentration of 0.5 mM.
First, 100 μl of each solution (10^−l to 10^−6 M) of the individual compounds prepared in examples 1 to 4 were placed in each well of a 96-well plate. After adding 100 μl of DPPH solution and standing the reaction mixture at the room temperature, the absorption at 517 nm was measured for each well using a micro plate reader (BioTeck EL-340). A blank solution was prepared to contain 100 μl of methanol instead of the above compounds. The concentration of the individual compounds was denoted by IC50 at the time when the absorption of the test sample becomes a half of that of the blank solution. The absorption was measured at 1 hour and at 24 hours after treatment.

[3] = female, naked mouse, 24 h, 5 % (w/v), pH 7.4
Protocol: More specifically, a dorsal skin of 8-weeks aged female mouse (naked mouse) was cut off and then 5% (w/v) solution of the test sample was applied in an amount of 50 μl to the skin having a size of 1.7 cm^2. Using the apparatus for measuring transdermal absorption test (Franz cell), after 24 hours, the absorbed material was extracted from 7 ml of the receptor solution [50 mM PBS buffer solution (pH=7.4) containing 2% Vol PO20 polyethylene oleyl ether (HLB=16)] and then quantitatively analyzed by HPLC.

[4] = 24 hours after treatment, read-out: Radical Scavenging Effect IC50 After 24 hrs.
[5] = read-out: Radical Scavenging Effect IC50 After 1 hour, 1 hour after treatment

| Compound | IC50 [1] [mM] | IC50 [2, 4] [mM] | IC50 [2, 5] [mM] | Absorption Rate (%) [3] [%] | Total Transdermal Absorption Amount [3] [mg] | radical scavenging effect (in words) [2] |
| --- | --- | --- | --- | --- | --- | --- |
| 3-O-PEG350-Ascorbic Acid | 9.8 | 5.9 | 78.7 | – | – | an increase in the radical scavenging effect with an elapse of time |
| 3-O-PEG550-ascorbic acid | 7.06 | – | – | – | – | an increase in the radical scavenging effect with an elapse of time |
| CCOC1=C(O)C(=O)O[C@@H]1[C@@H](O)CO [3-O-Ethyl-ascorbic acid, reference compound] | 9.8 | 9.8 | 9.8 | – | – | – |
| 2-O-PEG550-Ascorbic Acid | 7.06 | 4.2 | 7.9 | – | – | potent radical scavenging effect in a short time |

Now those with a lower IC50 [1], led by results:

| IC50 [1] [mM] | IC50 [2, 4] [mM] | IC50 [2, 5] [mM] | Absorption Rate (%) [3] [%] | Total Transdermal Absorption Amount [3] [mg] | Compound | radical scavenging effect (in words) [2] |
| --- | --- | --- | --- | --- | --- | --- |
| 1.97 | 5.9 | 7.9 | – | – | 2-O-PEG350-Ascorbic Acid | potent radical scavenging effect in a short time |
| 0.47 | 3.4 | 3.4 | 1.2 | 0.03 | O=C1O[C@H]([C@@H](O)CO)C(O)=C1O [Ascorbic acid] | – |
